# In patent publication US11952582B2, “Herbicide-resistance gene and application thereof in plant breeding” (priority 2017, dated 2024):
# “Also recorded” adds a separate entry of the source.
# Legend:
# [1] = test system: Arabidopsis WT, OE At, OE Pa, OE M3 plants; assay: Total chlorophyll and carotenoid content of Arabidopsis rosette leaves; format: in vivo, Arabidopsis thaliana
# Description: The leaves (rosette leaves) of 2 week-old plants grown in ^1/2 MS medium containing different concentrations (0, 100, 250, 500 and 1000 nM) of mesotrione were collected, including leaves of OE At, OE Pa, OE M3 and WT. The total chlorophyll and carotenoid were extracted and the content thereof was detected by referring to the method of Lichtenthaler HK (1987). All experiments were repeated biologically 3 times, and the average value was taken.
# [2] = test system: WT (William 82) and OE PaHPPD-SDM soybean leaves; assay: Soybean resistance to herbicide at leaf level (leaf coating); format: in vivo; details: leaf coating 0-30 μM, 2 weeks
# Description: Transgenic T0 generation OE SDMHPPD and WT soybean (William 82) seedlings were planted in pots and placed in an artificial climate room (27° C., […], light/dark) for growth. After 4 weeks, 0, 1, 5, 10 and 30 μM of mesotrione (prepared with 0.1% Tween-20) and 0.1% Tween-20 were dipped with cotton swabs and evenly coated to the leaves of OE SDMHPPD (OE SDM #12 and OE SDM #13) T0 generation and WT seedlings having a height of 30-40 cm. Then, the phenotype was observed every week, and the experimental result was recorded by taking photos 2 weeks after the treatment.
# To further test the resistance of transgenic soybeans to herbicides, 20 μM mesotrione (prepared with 0.1% Tween-20) and 0.1% Tween-20 were dipped with cotton swabs and evenly coated to the trifoliate leaves of 2 week-old WT, OE GmHPPD (OE GmHPPD #9) T1 generation seedlings and OE SDMHPPD (OE SDMHPPD #12) T1 generation. Then, the phenotype was observed every day, and the experimental result was recorded by taking photos 10 days after the treatment.
# [3] = test system: WT (William 82), OE GmHPPD and OE PaHPPD-SDM T1 soybean plants; assay: Soybean resistance to herbicide at whole plant level (spraying); format: in vivo; details: 20 μM sprayed twice
# Description: 20 μM mesotrione (prepared with 0.1% Tween-20) and 0.1% Tween-20 were spray to 4 week-old transgenic T1 generation OE SDMHPPD, T1 generation OE GmHPPD and WT soybean which were grown in an artificial climate chamber (27° C., […], light/dark) for the first time. A second spray was applied after 1 week. Then the phenotype of the plants was observed very day, and the experimental result was recorded by taking photos 2 weeks after the treatment.
# [4] = test system: WT (William 82), OE GmHPPD and OE PaHPPD-SDM T1 soybean plants; assay: Chlorophyll content and plant height of T1 generation soybean after whole plant spraying; format: in vivo; details: 20 μM sprayed twice, 2 weeks
# Description: Wild type soybean William 82, T1 generation OE PaHPPD-SDM soybean and T1 generation OE GmHPPD soybean seedlings were sprayed with 20 μM mesotrione (prepared with 0.1% Tween-20) and 0.1% Tween-20 for twice, respectively. The interval between two sprays is 1 week. Two weeks after spray treatment, the total chlorophyll of the leaves was extracted and the content was determined by referring to the method of Lichtenthaler HK (1987). All experiments were repeated biologically 3 times, and the average value was taken.
# [5] = test system: GmHPPD, HST, HPT, MPQMT and TC gene expression in soybean seedlings; assay: qPCR of HPPD and tocopherol biosynthesis genes in soybean after herbicide treatment; format: in vivo; details: 20 μM, 12 h
# Description: 4 week-old T1 generation seedlings of WT, OE GmHPPD and OE PaHPPD-SDM were used as materials to set up a treatment group and a control group, respectively, wherein the treatment group was continuously cultured in ½ MS liquid medium containing 20 μM mesotrione for 12 h. The total RNA of related materials was extracted using Super Fast Plant RNA Extraction Kit (Beijing Huayueyang Biological Technology Co., Ltd., China). The concentration of RNA samples was measured using NanoDrop ND1000 (Thermo Scientific, USA). RNA samples with an absorbance ratio (at wavelengths of 260/280 nm and 260/230 nm) of approximately 2.0 were selected. The total RNA (1,000 ng) was then used for synthesis of cDNA for reverse transcription using a cDNA synthesis kit (One-step Removal of Transcript gDNA and cDNA Synthesis Super Kit, TransGen).
# As for quantitative reverse transcription PCR analysis, 3.0 μL cDNA was used as a template in a 20 μL reaction system, and gene-specific primers such as qGmHPPD F and qGmHPPD R were used for GmHPPD gene, qGmHST F and qGmHST R were used for […] gene (alkapton lycopene transferase gene), qGmHPT F and qGmHPT R were used for GmHPT or VTE2 genes, GmMPQMT F and MPQMT R were used for GmMPQMT methyl transferase genes (also known as VTE3), GmTC F and GmTC R were used for GmTC genes (also known as VTE1, tocopherol cyclase gene). These VTE (1, 2 and 3) genes were selected because they encode the key enzymes involved in tocopherol biosynthesis. Three technical repetitions were performed on the Bio-Rad CFX96 real-time system. REST software was used for statistical analysis.
# PaHPPD-SDM = PaHPPD-SDM (Pseudomonas aeruginosa, UniProt Q9I576, A156V/E349K/R282S); details: higher doses in the range 0-60 of herbicide
# Sequence of PaHPPD-SDM (Q9I576 whole entry A156V/R282S/E349K): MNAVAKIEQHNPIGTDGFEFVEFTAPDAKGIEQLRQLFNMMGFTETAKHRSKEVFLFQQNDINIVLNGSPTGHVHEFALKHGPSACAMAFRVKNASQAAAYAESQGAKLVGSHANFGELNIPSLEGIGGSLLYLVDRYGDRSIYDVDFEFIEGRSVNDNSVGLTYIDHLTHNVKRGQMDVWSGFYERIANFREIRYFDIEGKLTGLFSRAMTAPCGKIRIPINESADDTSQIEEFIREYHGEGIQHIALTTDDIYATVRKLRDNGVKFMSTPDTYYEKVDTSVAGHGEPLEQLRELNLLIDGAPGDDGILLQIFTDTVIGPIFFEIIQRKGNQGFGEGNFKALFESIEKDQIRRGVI
# Description: Specifically, the presence of tyrosine aminotransferase in E. coli DH5a can catalyze the production of p-hydroxyphenylpyruvate (4-HPP) from tyrosine, which is used as a substrate for HPPD to produce homogentisic acid (HGA). After further oxidation and polymerization, a brown substance is produced. The addition of HPPD inhibitors will inhibit this reaction, thereby reducing the production of pigment. Therefore, the gradation of pigment can be used as an inhibition index of HPPD activity. […] Through heterologous expression of HPPD mutant genes from different species in E. coli DH5α, the resistance characteristics of E. coli DH5α-mutated gene to triketone herbicides were analyzed by detecting the absorption value of pigment at 405 nm (FIGS. 2-6, 8 and 9).
# The PaHPPD mutants obtained by random mutation was cloned into E. coli cells together with wild-type PaHPPD and AtHPPD for comparation and screening.
# The bacteria solution shaking cultured overnight at 37° C. was centrifuged, and 200 μL of supernatant was transferred to a sterile 96-well plate (microplate with high throughput characteristics) using a 200 μL pipette on an ultra-clean workbench. The pigment content was measured with a microtiter plate reader at a wavelength of 405 nm (OD405 nm), and the HPPD activity was evaluated according to the size of the OD value.
# Then the obtained PaHPPD-SDM mutant was compared with its parental mutants (PaHPPD-M3, PaHPPD-DS18, and PaHPPD-DS73) to understand their ability of brown pigmentation in the presence of triketone herbicides at different doses (0-60 μM). The calculation formula of HPPD activity (%) is as follows: HPPD activity(%)=(Am/Ac)×100
# Wherein Am refers to the average value of the absorbance at a specific herbicide dose, and Ac refers to the average value of the absorbance without the herbicide.
smiles,measurement,setting,value
CS(=O)(=O)c1ccc(C(=O)C2C(=O)CCCC2=O)c([N+](=O)[O-])c1 [mesotrione],total chlorophyll and carotenoid content of leaves with the increase of herbicide concentration,"[1]; WT, OE At, OE Pa and OE M3, 0-1000 nM in 1/2 MS medium",decreased
same,"total chlorophyll and carotenoid content of OE M3 compared with WT, OE At and OE Pa",[1]; same herbicide concentration,significantly higher
same,concentration at which leaves did not show symptoms of albino (bleaching) and damage,[2]; OE PaHPPD-SDM soybean line,30 µM
same,concentration at which leaves showed albino (bleaching) symptom,[2]; wild-type soybean William 82,5 µM
same,phenotype after whole plant spraying,[3]; OE PaHPPD-SDM T1 line,grew normally
same,phenotype after whole plant spraying,[3]; wild-type William 82 and OE GmHPPD T1 line,albino symptom and growth retardation
same,contents of chlorophyll a and chlorophyll b (and plant height) of treated OE PaHPPD-SDM compared with treated OE GmHPPD and wild type,[4],significant higher
same,order of plant height of treated lines,[4],OE PaHPPD-SDM>OE GmHPPD>wild-type soybean William 82
same,contents of chlorophyll a and chlorophyll b in leaves (and plant height) compared with control treatment,[4]; OE GmHPPD and wild-type William 82,significantly lower
same,contents of chlorophyll a and chlorophyll b in leaves (and plant height) compared with control,[4]; OE PaHPPD-SDM,reduced; also recorded: slightly reduced
same,plant height of treated soybean compared with control,[4]; all lines,lower
same,expression levels of GmHPPD and MPQMT genes compared with control,[5]; OE GmHPPD T1 line,decreased
same,"expression levels of HST, HPT and TC genes compared with control",[5]; OE GmHPPD T1 line,increased
same,expression levels of GmHPPD and HPT genes compared with control,[5]; OE PaHPPD-SDM T1 line,up-regulated
same,"expression levels of HST, MPQMT and TC genes compared with control",[5]; OE PaHPPD-SDM T1 line,almost unchanged
same,"expression of GmHPPD, HST, HPT, MPQMT and TC genes compared with control",[5]; wild-type William 82,significantly reduced
same,"resistance by HPPD activity (%) compared with WT, PaHPPD-M3, PaHPPD-DS18 and PaHPPD-DS73",PaHPPD-SDM,improved the resistance
